Data as given in patent US20110092488A1, “Quninoline Methanol Compounds for the Treatment and Prevention of Parasitic Infections” (priority 2005, published 2011).
≈ marks a conversion by molar mass, not a printed value. Read-outs that look alike come from different tables or passages of the source.

Legend:
P. falciparum TM91C235 = test: In vitro antimalarial activity against P. falciparum TM91C235; type: cell-based, Plasmodium falciparum
P. falciparum TM90C2A = test: In vitro antimalarial activity against P. falciparum TM90C2A; type: cell-based, Plasmodium falciparum
Description: (§1) The in vitro activities of AAQMs against P. falciparum strains W2, D6, TM91C235 and TM90C2A were evaluated using the method of Desjardins et al. as modified by Milhous et al. W2 is chloroquine resistant and mefloquine sensitive, D6 is chloroquine sensitive but naturally less susceptible to mefloquine, TM91C235 is resistant to mefloquine, chloroquine and pyrimethamine as is TM90C2A, however this latter parasite is a two pfmdr1 copy strain. We routinely run mefloquine in this screen as a control to ensure assay validity.

P. falciparum W2 = test: In vitro antimalarial activity against P. falciparum W2; type: cell-based, Plasmodium falciparum
Description: as §1

[1] = system: primary rat forebrain neurons; test: Neurocytotoxicity assay (MTT)
Description: The neurocytotoxicity assay of AAQMs was conducted as per Dow et al.; The antimalarial potential of 4-quinolinecarbinolamines may be limited due to neurotoxicity and cross-resistance in mefloquine-resistant Plasmodium falciparum strains; Chemother. (48) 2624-2632 (2004) and is incorporated herein, by reference. This assay utilizes primary rat forebrain neurons and is a multi-endpoint screen. […] The AAQMs outlined in Table 1 were screened at 10, 100 and 1000 μM in triplicate, and the reduction in viability observed was determined using the 3-(4,5-dimethylthiazol-2-yl)-2,5-diphenyltetrazolium bromide (MTT) assay as per Dow et al., discussed above. Approximate IC50 values were calculated on the basis of the level of inhibition observed at each concentration. Full dose response assays were run for mefloquine and WR069878 with two fold dilutions (n=6 wells per dilution) and 11 dilutions for each drug. IC50s were calculated using Prism. Each time the assay is conducted, 20 μM mefloquine is included, as a control. […] Assays are re-run if the loss of viability induced by mefloquine is <40% or >60%. Neuroprotection experiments with 6,7-dinitroquinoxaline-2,3-dione (DNQX) and magnesium were performed as per Dow et al.; Transcriptional profiling of mefloquine-induced disruption of calcium homeostasis in neurons in vitro; Genomics (86)539-550 (2005), which is incorporated by reference, herein. Neurons were exposed to DNQX (100 μM) or magnesium (12 mM) for 5 min, followed by mefloquine (25 μM) or WR069878 (250 μM) for 20 min after which reduction in cell viability was determined. […] DNQX is an inhibitor of non-N-methyl-D-aspartate (NMDA) receptors, whilst magnesium inhibits the functioning of the inositol 1,4,5-trisphosphate (IP3)-mediated calcium signaling pathway at several points. The effects of mefloquine and WR069878 on neuronal calcium homeostasis were assessed utilizing confocal microscopy as per Dow et al, as discussed in Antimicrob Agents Chemother. (48)2624-2632 (2004), cited above, and incorporated by reference, herein. Briefly neurons were loaded with calcium sensitive dye Fluo 3-A for 1 h and were washed prior to image experiments. Neurons were ‘spiked’ with 100 μM mefloquine or WR069878. Subsequent changes in neuronal calcium homeostasis were recorded as fluctuations in the emitted fluorescence of fluo-3-complexed calcium at 530 nm (excitation was 488 nm). Sequential image scans of fields containing 5-25 neurons were used to construct temporal profiles. Scans were made at 10 s intervals. Fluorescence levels for each neuron were normalized 12 to time zero values. Data were then pooled from three and five independent experiments for mefloquine and WR069878 respectively.

AMRU1 strain of P. vivax = test: Efficacy in P. vivax-challenged Aotus monkeys; type: in vivo, Plasmodium vivax in Aotus lemurinus lemurinus; conditions: oral; for Outcome: Aotus
Description: The P. berghei-mouse efficacy data were obtained from the WRAIR chemical information system (subcutaneous testing) or from recent tests conducted at AFRIMS, Thailand or at the University of Miami using a modified version of the Thompson test. Groups of five mice were inoculated through i.p. injection on day 0 (usually with 1×106 P. berghei-parasitized erythrocytes). The drugs in Table 1 were administered either subcutaneously or orally for three days (usually on days 3-5) at doses of 1.25-160 mg/kg in two to four fold increments. Cure was defined as survival until day 60 (subcutaneous dosing) or day 31 post-treatment (oral dosing). […] The minimum effective dose was the lowest dose level that cured at least one of five mice. The Aotus studies were performed according to Obaldia; Detection of Klebsiella pnuumoniae antibodies in Aotus l. lemurinus (Panamanian owl monkey) using an enzyme linked immunosorbent assay (ELIA) test; Lab Anim (25)133-141 (1991) and Obaldia et al., WR 238605, chloroquine, and their combinations as blood schizonticides against a chloroquine-resistant strain of Plasmodium vivax in Aotus monkeys; Am. J. Trop. Med. Hyg. (56)508-510 (1997), which are incorporated by reference, herein. Groups of two Aotus lemurinus 6 lemurinus of the karyotype VIII or IX (27) male and female monkeys with weights ranging from 742-970 g were inoculated with 5×10^6 parasites of either the FVO strain of P. falciparum or the AMRU1 strain of P. vivax. Both of these strains are chloroquine resistant. […] Monkeys were examined and thick Giemsa-stained blood smears were prepared and enumerated daily (17) to monitor the course of infection. […] In some instances, a high dose of the test drug was used to retreat monkeys instead of the mefloquine rescue. Monkeys are considered cured if they are parasite free 90 days post treatment. […] Plasma samples were taken from the monkeys in some studies for quantification of metabolites. Additional blood samples were taken as appropriate for complete blood counts and serum chemistry. Research was conducted in compliance with the Animal Welfare Act and other federal statutes and regulations relating to animals and experiments involving animals and adheres to principles stated in the Guide for the Care and Use of Laboratory Animals, NRC Publication, 1996 edition (34).

[2] = Aotus, 10 mg/kg/day oral x7

- Activity against P. falciparum TM91C235 (IC50 in ng/ml) (P. falciparum TM91C235): 1.5 ng/mL
- TM91C235 IC90 (P. falciparum TM91C235; Table 2): 3.3 ng/mL
- IC90 against TM91C235 (P. falciparum TM91C235; text b26): 11.7 ng/mL (≈ 0.0255 µM)
- IC90 against TM90C2A (P. falciparum TM90C2A): 16 ng/mL (≈ 0.0348 µM)
- IC90 against W2 (P. falciparum W2): 0.49 ng/mL (≈ 0.00107 µM)
- Mean peak concentration [2]: 65 ng/mL
- Plasma conc on day 1 (ng/ml) 2 h ([2]; day 1, 2 h): 38 ng/mL
- Plasma conc on day 1 (ng/ml) 24 h ([2]; day 1, 24 h): 16 ng/mL
- Plasma conc. on day 7 (ng/ml) 2 h ([2]; day 7, 2 h): 91 ng/mL
- Plasma conc. on day 7 (ng/ml) 24 h ([2]; day 7, 24 h): 40 ng/mL
SMILES: CCCCN(CCCC)CC(O)c1cc(-c2ccc(Cl)cc2)nc2cc(Cl)c(C)cc12 (stereo not shown) [WR069878]
- IC50 ([1]; read-out: Neurotoxicity IC50, full dose response, FIG. 2(a)): 242 µM
- IC50 ([1]; read-out: Neurotoxicity ranking (IC50 in μM), approximate IC50 from screen at 10, 100 and 1000 μM, MTT): 200 µM
- Outcome (AMRU1 strain of P. vivax; 0.625 mg/kg/day x 3 days, primary treatment): Failure
- Outcome (AMRU1 strain of P. vivax; 2.5 mg/kg/day x 3 days, primary treatment): Failure
- Outcome (AMRU1 strain of P. vivax; 10 mg/kg/day x 3 days, primary treatment, number in brackets = days before recrudescence, 10 mg/kg/day): Clear (7) and Cure
- Outcome (AMRU1 strain of P. vivax; 20 mg/kg/day x 1 day, retreatment, one monkey per line, number in brackets = days before recrudescence, 20 mg/kg/day): Cure and Clear (8)
- Outcome (AMRU1 strain of P. vivax; 40 mg/kg/day x 3 days, retreatment): Cure
- Outcome (AMRU1 strain of P. vivax; 80 mg/kg/day x 1 day, retreatment, number in brackets = days before recrudescence, 80 mg/kg/day): Clear (11) and Cure
- Outcome in P. vivax infections (AMRU1 strain of P. vivax; three day regimen): cures P. vivax infections
